The values below come from US20080300263A1, “Pyrazolo [1,5-a] pyrimidine compounds and pharmaceutical compositions containing them” (EiRx Therapeutics plc, priority 2005, published 2008).

Read-outs that look alike come from different tables or passages of the source.

Format in all cases: cell-based
One experiment deals with C9M-TF1 cells. Nature of the experiment: Primary high-throughput screen, Alamar Blue, suspension cells. To be noted: Homo sapiens, 72 h, compound at 10 μM, read-out: percentage kill, C9M. As for the experimental part:
(§1) Daughter Plates containing 10 μl of a […] solution of test compound selected from among the candidate compounds stored at […] are thawed at room temperature. A 10 μL volume of 0.1% DMSO in PBS is added to all wells of Column 12 and the wells in Row A-F of Column 1. A 10 μl volume of a pre-determined concentration of the P13-Kinase inhibitor LY294002 is added to wells in Row G and H of Column 1. A 90 μl volume of the appropriate cell culture medium is then added to each well and mixed by repeated aspiration/dispensing. The compounds are at a final test concentration of 10 μM.
(§2) Once the Daughter Plates have been prepared the media is removed from all wells of the cell culture plate using an 8-Channel Vacuum Aspirator. The contents of the Daughter Plates are then transferred to the appropriate wells of their relevant Test Plates and the Test Plates are incubated for 72 h at 37° C. and 5% CO2. At the end of this period Test Plates are assayed by Alamar Blue. A 10 μl volume of Alamar Blue is added to all wells of the Test Plate. The Test Plates are incubated for […] at 37° C. and 5% CO2 and finally read using the BioTek SYNERGY plate reader (Excitation 530125 nm-Emission 590135 nm). Percentage inhibition is determined using Microsoft Excel spreadsheet calculations.
(§3) Suspension cells are split 24 hours prior to drug treatment in order to bring the cultures into the log phase of growth. On the day of the assay the cells are plated directly into the Daughter Plates at the appropriate pre-determined seeding density (Table 1) in 90 μl volumes, the concentration of the test compounds thus being reduced to 10 μM. Cells are plated in all wells apart from those in Column 12 which contain 901 normal culture medium alone. The plates are incubated for 72 h at 37° C. and 5% CO2 after which time they are assayed by Alamar Blue as per the preceding example.
(§4) The figures appearing in the columns are the percentage kill achieved by that compound at 10 μM.
Background: Alamar Blue is a resazurin reagent that responds to reducing activity.

For experiment [1], the system named is FRAT2 overexpresing TF1 (FRAT2-C9M-TF1 cells). The description is as above. To be noted: Homo sapiens, compound at 10 μM, 72 h. As for the experimental part: as §1, §2, §3, §4
The subject of experiment [2] is A549 Non Small Cell Lung Carcinoma. Description: Primary high-throughput screen, Alamar Blue, adherent cells. To be noted: Homo sapiens, compound at 10 μM, 72 h, read-out: percentage kill, A549. As for the experimental part: (§5) Adherent cells are plated at a pre-determined seeding density (Table 1) in flat-bottom 96 well plates 24 hours prior to drug treatment. The cell lines are plated in 100 μl volumes in each well. Cells are plated in all wells apart from those in Column 12 which contain 100 μL normal culture medium alone. These plates will be known as the Test Plates. The Test Plates are labelled with a Daughter Plate ID.
as §1, §2, §4

Experiment [3] deals with CACO2 Colon adenocarcinoma. The description is as above. To be noted: Homo sapiens, Caco-2; compound at 10 μM, 72 h; read-out: percentage kill, CAC02. As for the experimental part: as §5, §1, §2, §4
In experiment [4] the test system is HT29 Colorectal adenocarcinoma. The description is as above. To be noted: Homo sapiens, HT-29; compound at 10 μM, 72 h; read-out: percentage kill, HT29. On the procedure: as §5, §1, §2, §4
The test system of experiment [5] is LS123 Colon adenocarcinoma (Dukes' type B). The description is as above. The following applies: Homo sapiens, LS-123; compound at 10 μM, 72 h; read-out: percentage kill, LS123. On the procedure: as §5, §1, §2, §4
Experiment [6] relates to MCF7 Mammary gland adenocarcinoma. The experiment is described as above. The following applies: Homo sapiens, compound at 10 μM, 72 h, read-out: percentage kill, MCF7. On the procedure:
as §5, §1, §2, §4

For experiment [7], the system named is NCI ADR RES Breast adenocarcinoma (pleural effusion). The description is as above. The following applies: Homo sapiens, compound at 10 μM, 72 h, read-out: percentage kill, NCI ADR RES. As for the experimental part:
as §5, §1, §2, §4

Experiment [8] relates to PC3 Prostate carcinoma (bone metastasis). The experiment is described as above. To be noted: compound at 10 μM, 72 h; read-out: percentage kill, PC3. As for the experimental part: as §5, §1, §2, §4
In experiment [9] the test system is SW480 Colon adenocarcinoma (Dukes' type B). The description is as above. To be noted: Homo sapiens, compound at 10 μM, 72 h, read-out: percentage kill, SW480. As for the experimental part: as §5, §1, §2, §4
The subject of experiment [10] is U1810 Non Small Cell Lung Carcinoma. The description is as above. To be noted: U-1810; compound at 10 μM, 72 h; read-out: percentage kill, U1810. As for the experimental part:
as §5, §1, §2, §4

Setting [11] is: minus GMCSF, read-out: percentage kill, FRAT2−.
Setting [12] is: plus GMCSF, read-out: percentage kill, FRAT2+.

Turning to `Fc1ccc(-c2cnn3c(NCc4ccccn4)ccnc23)cc1Cl` [Compound 11], the inhibition at 10 µM was 1% in the experiment on C9M-TF1 cells (first C9M column); -6% in the experiment on C9M-TF1 cells (second C9M column); 71% in [1] (setting [11]); 35% in [1] (setting [12]); 5% in [2]; 61% in experiment [3]. Further, the inhibition at 10 µM in experiment [4] is 25%; in experiment [5], 22%; in experiment [6], 22%; in experiment [7], 18%; in [8], -85%; in [9] it was -6%. The inhibition at 10 µM in experiment [10] is 13%.

As for `Clc1cccc(Nc2ccn3ncc(-c4ccncc4)c3n2)c1` [Compound 14], the inhibition at 10 µM with C9M-TF1 cells (first C9M column) is 45%; with C9M-TF1 cells (second C9M column), 27%; in experiment [1] (setting [11]) it was 50%; in experiment [1] (setting [12]), 38%; in experiment [2], 26%; in experiment [3], 46%. The inhibition at 10 µM in experiment [4] is 51%; in [5] it was 13%; in experiment [6] it was 26%; in [7], 2%; in experiment [8], -4%; in experiment [9] it was 10%. In addition, in [10], the inhibition at 10 µM is 2%.

`ClCc1ccccc1-c1cnn2c(NCc3cccs3)ccnc12` [Compound 12]: the inhibition at 10 µM in the experiment with C9M-TF1 cells (first C9M column) turned out to be 0%; with C9M-TF1 cells (second C9M column), 0%; in [1] (setting [11]) it was 52%; in [1] (setting [12]), 19%; in experiment [2], 4%; in experiment [3], 17%. Also, the inhibition at 10 µM in experiment [4] is -5%; in experiment [5], 31%; in [6], 36%; in experiment [7], -12%; in [8], -45%; in experiment [9], -22%. The inhibition at 10 µM in [10] worked out at 18%.

As to `c1ccc(CNc2ccnc3c(-c4ccc(N5CCOCC5)cc4)cnn23)nc1` [Compound 13], the inhibition at 10 µM in the experiment on C9M-TF1 cells (first C9M column) was -1%; in the experiment with C9M-TF1 cells (second C9M column) it was -1%; in experiment [1] (setting [11]) it was 61%; in [1] (setting [12]) it was 38%; in [2], 18%; in experiment [3], 27%. Besides, the inhibition at 10 µM in [4] is -13%; in experiment [5] it was 55%; in experiment [6], 56%; in [7], 28%; in experiment [8], -37%; in [9], -4%. Besides, the inhibition at 10 µM in experiment [10] came out at 13%.
